The values below come from publication PMC3681555, “PPARγ as a sensor of lipase activity and a target for the lipase inhibitor orlistat” (Lipids in Health and Disease, 2013).

Each structure is given as a SMILES string.

Assay [1] deals with T1, PPARγ (Homo sapiens, UniProt P37231).
T1 construct: gene PPARG
T1 sequence (P37231 235-505 limits assumed): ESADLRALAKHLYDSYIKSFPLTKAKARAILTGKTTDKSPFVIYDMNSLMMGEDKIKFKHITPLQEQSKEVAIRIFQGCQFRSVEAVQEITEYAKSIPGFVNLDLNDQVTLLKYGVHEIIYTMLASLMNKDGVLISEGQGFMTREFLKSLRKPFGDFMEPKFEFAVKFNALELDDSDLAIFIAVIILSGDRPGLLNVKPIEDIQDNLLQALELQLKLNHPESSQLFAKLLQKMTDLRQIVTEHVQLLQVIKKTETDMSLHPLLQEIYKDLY
Kind of assay: intact-protein LC-ESI-MS, covalent control (data not shown). Type of assay: binding.

For assay [2], the target named is T1, PPARγ. Kind of assay: competitive fluorescence polarization (PolarScreen PPARγ green kit); LC-MS shows no covalent adduct. The format is binding. For orientation: In fluorescence polarisation assays a small probe gives low polarisation when free and higher when bound to something large.

In the case of `O=C(Nc1ccccc1)c1cc([N+](=O)[O-])ccc1Cl` [GW9662], the “intact-protein LC-ESI-MS, covalent control (data not shown)” value in assay [1] was “Dithio-bis (2-nitrobenzoic acid) and GW9662, were also confirmed bind to PPARγ irreversibly (data not shown)”.
What is called IC50 is the midpoint of a concentration-inhibition curve. Consider `CCCCCCCCCCC[C@@H](C[C@@H]1OC(=O)[C@H]1CCCCCC)OC(=O)[C@H](CC(C)C)NC=O` [Orlistat], for which, in assay [2], the IC50 came out at 2.84 µM.
